From patent US6875760B2 (Novo Nordisk A/S, priority 1999, dated 2005)

Molecular target: T1, cloned human glucagon receptor (Homo sapiens, UniProt P47871)
T1 construct: expressed in transfected cells; plasma membrane preparation
Assay: Glucagon Binding Assay (II)
Conditions: for IC50: plasma membranes of BHK cells expressing the receptor, read-out: Glu Bd Assay (II) IC50; for inhibition at 1 µM: screened at 1 μM, library compounds, read-out: displacement of the glucagon tracer when screened at 1 μM concentration in the glucagon binding assay II
Method: Binding of compounds to the glucagon receptor was determined in a competition binding assay using the cloned human glucagon receptor.
The receptor inserted in the pLJ6′ expression vector using EcoRI/SSt1 restriction sites (Lok et al.) was expressed in a baby hamster kidney cell line (A3 BHK 570-25).
The homogenate was resuspended and centrifuged again. The final precipitate containing the plasma membranes was suspended in buffer and stored at −80° C. until use.
Binding assays were carried out in duplicate in polypropylene tubes or microtiter plates. The buffer used in this assay was 50 mM HEPES pH 7.4 containing 5 mM EGTA, 5 mM MgCl2 and 0.005% Tween 20. Sample (glucagon (Bachem CA) or test compounds) was added to each tube or well. Tracer (˜25.000 cpm) was diluted in buffer and was added to each tube or well. 0.5 mg freshly thawed plasma membrane protein diluted in buffer was then added in aliquots to each tube or well. Tubes or plates were incubated at 37° C. for 1 hour. Non-specific binding was determined with 10^−7 M of glucagon. Bound tracer and unbound tracer were then separated by vacuum filtration. The tubes or wells were washed twice with 0.01% Triton X-100 buffer. Scintillation fluid was added to the plates and radioactivity was quantified using a scintillation counter.

T1 sequence (P47871 26-477): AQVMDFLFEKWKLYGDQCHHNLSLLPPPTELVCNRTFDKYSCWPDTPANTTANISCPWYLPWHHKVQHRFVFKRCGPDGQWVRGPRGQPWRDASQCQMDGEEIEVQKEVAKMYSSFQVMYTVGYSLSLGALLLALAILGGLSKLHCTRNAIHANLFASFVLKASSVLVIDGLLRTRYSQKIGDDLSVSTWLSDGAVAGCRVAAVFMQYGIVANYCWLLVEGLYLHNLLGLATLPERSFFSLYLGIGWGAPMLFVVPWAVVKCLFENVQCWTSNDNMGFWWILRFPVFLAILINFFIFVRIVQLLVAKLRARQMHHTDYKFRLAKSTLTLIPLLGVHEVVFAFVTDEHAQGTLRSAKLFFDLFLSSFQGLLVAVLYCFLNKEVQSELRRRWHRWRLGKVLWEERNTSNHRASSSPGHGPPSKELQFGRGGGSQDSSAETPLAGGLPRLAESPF

| SMILES | IC50 | inhibition at 1 µM |
| --- | --- | --- |
| COC(=O)CCNC(=O)c1ccc(CN(C(=O)Nc2cc(C(F)(F)F)cc(C(F)(F)F)c2)C2CCC(C(C)(C)C)CC2)cc1 (stereo not drawn) | 101 nM | – |
| CCCCOC(=O)c1ccc(NC(=O)N(Cc2ccc(C(=O)NCCC(=O)O)cc2)C2CCCCCC2)cc1 | 217 nM | – |
| CCCCOC(=O)c1ccc(NC(=O)N(Cc2ccc(C(=O)NCCC(=O)O)cc2)CC2CCCCC2)cc1 | 264 nM | – |
| CCCCOC(=O)c1ccc(NC(=O)N(Cc2ccc(C(=O)NCCC(=O)O)cc2)C2CCC(C)CC2)cc1 (stereo not drawn) | 188 nM | – |
| CCCCOC(=O)c1ccc(NC(=O)N(CCC(C)C)Cc2ccc(C(=O)NCCC(=O)O)cc2)cc1 | 254 nM | – |
| CCCCOC(=O)c1ccc(NC(=O)N(Cc2ccc(C(=O)NCCC(=O)O)cc2)CC(C)(C)C)cc1 | 230 nM | – |
| CCCCOC(=O)c1ccc(NC(=O)N(Cc2ccc(C(=O)NCCC(=O)O)cc2)C2CCCC(C)C2)cc1 (stereo not drawn) | 278 nM | – |
| O=C(O)CCNC(=O)c1ccc(CN(CCc2ccc(Cl)cc2)C(=O)Nc2ccc(OCc3ccccc3)cc2)cc1 | 400 nM | – |
| CC(C)(C)C1CCC(N(Cc2ccc(C(=O)NCCC(=O)O)cc2)C(=O)Nc2cc(C(F)(F)F)cc(C(F)(F)F)c2)CC1 (stereo not drawn) | 10 nM | – |
| O=C(Nc1nn[nH]n1)c1ccc(CN(C(=O)Nc2cccc(I)c2)c2ccc(C3=CCCCC3)cc2)cc1 | 26 nM | – |
| CC(C)(C)C1CCC(N(Cc2ccc(CNc3nn[nH]n3)cc2)C(=O)Nc2ccc(OC(F)(F)F)cc2)CC1 (mixture of isomers) [Example 579, 1-(4-tert-Butylcyclohexyl)-1-{4-[(2H-tetrazol-5-ylamino)methyl]benzyl}-3-(4-trifluoromethoxyphenyl)urea] | 242 nM | – |
| O=C(O)CCNC(=O)c1ccc(CN(C(=O)Nc2ccc(OC(F)(F)F)cc2)C2C[C@H]2c2ccccc2)cc1 (stereo in doubt) [Example 187, 3-{4-[1-(2-Phenylcyclopropyl)-3-(4-trifluoromethoxyphenyl)ureidomethyl]benzoylamino}propionic acid] | – | > 50% |
| O=C(O)CCNC(=O)c1ccc(CN(C(=O)Nc2ccc(Cl)c(C(F)(F)F)c2)C2C[C@H]2c2ccccc2)cc1 (stereo in doubt) [Example 188, 3-{4-[3-(4-Chloro-3-trifluoromethylphenyl)-1-(2-phenylcyclopropyl)ureidomethyl]benzoylamino}propionic acid] | – | > 50% |
| O=C(O)CCNC(=O)c1ccc(CN(C(=O)Nc2ccc(Cl)c(C(F)(F)F)c2)[C@@H](CO)CC2CCCCC2)cc1 (stereo in doubt) [Example 189, 3-{4-[3-(4-Chloro-3-trifluoromethylphenyl)-1-(2-cyclohexyl-1-hydroxymethylethyl)ureidomethyl]benzoylamino}propionic acid] | – | > 50% |
| O=C(O)CCCOc1ccc(CN(C(=O)Nc2ccc(OC(F)(F)F)cc2)C2C[C@H]2c2ccccc2)cc1 (stereo in doubt) [Example 222, 4-{4-[1-(2-Phenylcyclopropyl)-3-(4-trifluoromethoxyphenyl)ureidomethyl]phenoxy}butyric acid] | – | > 50% |
| O=C(O)CCCOc1ccc(CN(C(=O)Nc2ccc(Cl)c(C(F)(F)F)c2)C2C[C@H]2c2ccccc2)cc1 (stereo in doubt) [Example 223, 4-{4-[3-(4-Chloro-3-trifluoromethylphenyl)-1-(2-phenylcyclopropyl)ureidomethyl]phenoxy}butyric acid] | – | > 50% |
| CC(C)(C)C1CCC(N(Cc2ccc(C(=O)NCCC(=O)O)cc2)C(=O)Nc2ccc(SC(F)(F)F)cc2)CC1 (stereo not drawn) [Example 101, 3-{4-[1-(4-tert-Butylcyclohexyl)-3-(4-trifluoromethylsulfanylphenyl)ureidomethyl]benzoylamino)propionic acid] | 119 nM | – |
| CC(C)(C)C1CCC(N(Cc2ccc(C(=O)NCCC(=O)O)cc2)C(=O)Nc2ccc3ccccc3c2)CC1 (stereo not drawn) [Example 102, 3-{4-[1-(4-tert-Butylcyclohexyl)-3-naphthalen-2-ylureidomethyl]benzoylamino)propionic acid] | 167 nM | – |

| SMILES | IC50 | inhibition at 1 µM |
| --- | --- | --- |
| CC(C)(C)C1CCC(N(Cc2ccc(C(=O)NCCC(=O)O)cc2)C(=O)Nc2cc(Cl)nc(Cl)c2)CC1 (stereo not drawn) [Example 103, 3-{4-[1-(4-tert-Butylcyclohexyl)-3-(2,6-dichloropyridin-4-yl)ureidomethyl]benzoylamino)propionic acid] | 150 nM | – |
| CC(C)(C)C1CCC(N(Cc2ccc(C(=O)NCCC(=O)O)cc2)C(=O)Nc2cc(Cl)cc(Cl)c2)CC1 (stereo not drawn) [Example 104, 3-{4-[1-(4-tert-Butylcyclohexyl)-3-(3,5-dichlorophenyl)ureidomethyl]benzoylamino)propionic acid] | 50 nM | – |
| CC(C)(C)C1CCC(N(Cc2ccc(S(=O)(=O)NCCC(=O)O)cc2)C(=O)Nc2ccc(SC(F)(F)F)cc2)CC1 (stereo not drawn) [Example 105, 3-{4-[1-(4-tert-Butylcyclohexyl)-3-(4-trifluoromethylsulfanylphenyl)ureidomethyl]benzenesulfonylamino)propionic acid] | 446 nM | – |
| CC(C)(C)C1CCC(N(Cc2ccc(S(=O)(=O)NCCC(=O)O)cc2)C(=O)Nc2ccc(OC(F)(F)F)cc2)CC1 (stereo not drawn) [Example 106, 3-{4-[1-(4-tert-Butylcyclohexyl)-3-(4-trifluoromethoxyphenyl)ureidomethyl]benzenesulfonylamino)propionic acid] | 468 nM | – |
| Cc1ccc(NC(=O)N(Cc2ccc(S(=O)(=O)NCCC(=O)O)cc2)C2CCC(C(C)(C)C)CC2)cc1F (stereo not drawn) [Example 107, 3-{4-[1-(4-tert-Butylcyclohexyl)-3-(3-fluoro-4-methylphenyl)ureidomethyl]benzenesulfonylamino)propionic acid] | 1200 nM | – |
| CC(C)(C)c1ccc(CN(Cc2ccc(C(=O)NCCC(=O)O)cc2)C(=O)Nc2cc(Cl)cc(Cl)c2)cc1 [Example 108, 3-{4-[1-(4-tert-Butylbenzyl)-3-(3,5-dichlorophenyl)ureidomethyl]benzoylamino)propionic acid] | 669 nM | – |
| C[C@H](C1CCCCC1)N(Cc1ccc(C(=O)NCCC(=O)O)cc1)C(=O)Nc1ccc2ccccc2c1 [Example 109, 3-{4-[1-((1R)-1-Cyclohexylethyl)-3-naphthalene-2-ylureidomethyl]benzoylamino)propionic acid] | 916 nM | – |
| C[C@@H](C1CCCCC1)N(Cc1ccc(C(=O)NCCC(=O)O)cc1)C(=O)Nc1ccc2ccccc2c1 [Example 110, 3-{4-[1-((1S)-1-Cyclohexylethyl)-3-naphthalene-2-ylureidomethyl]benzoylamino)propionic acid] | 694 nM | – |
| CCCCc1ccc(NC(=O)N(Cc2ccc(C(=O)NCCC(=O)O)cc2)C2Cc3ccccc3C2)cc1 [Example 112, 3-{4-[1-(2,3-Dihydro-1H-inden-2-yl)-3-(4-butylphenyl)ureidomethyl]benzoylamino)propionic acid] | 220 nM | – |
| CC(C)(C)C1CCC(N(Cc2ccc(C(=O)NCCC(=O)O)s2)C(=O)Nc2ccc(OC(F)(F)F)cc2)CC1 (stereo not drawn) [Example 113, 3-{5-[1-(4-tert-Butylcyclohexyl)-3-(4-trifluoromethoxyphenyl)ureidomethyl]thiophene-2-carbonylamino)propionic acid] | 254 nM | – |
| CC1C(N(Cc2ccc(C(=O)NCCC(=O)O)cc2)C(=O)Nc2cc(Cl)cc(Cl)c2)CC2CC1C2(C)C (stereo not drawn) [Example 114] | 575 nM | – |
| O=C(O)CCNC(=O)c1ccc(CN(Cc2ccccc2OC(F)(F)F)C(=O)Nc2ccc3ccccc3c2)cc1 [Example 115, 3-{4-[1-(2-Trifluoromethoxybenzyl)-3-naphthalene-2-ylureidomethyl]benzoylamino)propionic acid] | – | > 50% |
| CCCCc1ccc(NC(=O)N(Cc2ccc(C(=O)NCCC(=O)O)cc2)Cc2ccccc2OC(F)(F)F)cc1 [Example 116, 3-{4-[1-(2-Trifluoromethoxybenzyl)-3-(4-butylphenyl)ureidomethyl]benzoylamino)propionic acid] | – | > 50% |
| O=C(O)CCNC(=O)c1ccc(CN(Cc2ccccc2OC(F)(F)F)C(=O)Nc2ccc(SC(F)(F)F)cc2)cc1 [Example 117, 3-{4-[1-(2-Trifluoromethoxybenzyl)-3-(4-trifluoromethylsulfanylphenyl)ureidomethyl]benzoylamino)propionic acid] | – | > 50% |
| CCCCc1ccc(NC(=O)N(Cc2ccc(C(=O)NCCC(=O)O)cc2)Cc2ccc(C(F)(F)F)cc2)cc1 [Example 118, 3-{4-[1-(4-Trifluoromethylbenzyl)-3-(4-butylphenyl)ureidomethyl]benzoylamino)propionic acid] | – | > 50% |
| CCCCOc1ccc(NC(=O)N(Cc2ccc(C(=O)NCCC(=O)O)cc2)Cc2ccc(C(F)(F)F)cc2)cc1 [Example 119, 3-{4-[1-(4-Trifluoromethylbenzyl)-3-(4-butoxyphenyl)ureidomethyl]benzoylamino)propionic acid] | – | > 50% |
| O=C(O)CCNC(=O)c1ccc(CN(Cc2ccc(C(F)(F)F)cc2)C(=O)Nc2ccc(SC(F)(F)F)cc2)cc1 [Example 120, 3-{4-[1-(4-Trifluoromethylbenzyl)-3-(4-trifluoromethylsulfanylphenyl)ureidomethyl]benzoylamino)propionic acid] | – | > 50% |
| COc1cc(CN(Cc2ccc(C(=O)NCCC(=O)O)cc2)C(=O)Nc2ccc(C)cc2)ccc1O [Example 121, 3-{4-[1-(4-Hydroxy-3-methoxybenzyl)-3-(4-methylphenyl)ureidomethyl]benzoylamino)propionic acid] | – | > 50% |
